Results on 33 compounds are retold here after patent US12606541B2, “PPARg modulators and methods of use” (Eisai R&D Management Co., Ltd., priority 2020, dated 2026).

Where only a bound is given, the exact number is not on record here.

For the assay, the target named is T1, His6-TEV-PPARγ-(234-505) (Homo sapiens, UniProt P37231).
T1 construct: The His6-TEV-PPARγ-(234-505) protein for assay was expressed and purified; TEV cleavage site (N); made in house
T1 sequence (P37231 234-505): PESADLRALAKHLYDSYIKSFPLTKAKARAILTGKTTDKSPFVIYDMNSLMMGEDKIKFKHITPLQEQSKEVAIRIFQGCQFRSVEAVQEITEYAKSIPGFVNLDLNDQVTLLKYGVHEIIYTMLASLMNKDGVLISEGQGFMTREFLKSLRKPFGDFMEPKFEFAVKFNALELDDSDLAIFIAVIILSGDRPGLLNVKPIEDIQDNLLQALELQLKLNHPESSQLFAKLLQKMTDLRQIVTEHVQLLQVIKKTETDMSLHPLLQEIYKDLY
As to the kind of experiment: TR-FRET Assay to Measure Co-R Peptide Recruitment to PPARγ. Format: biochemical. The settings on record: Co-R peptide recruitment to PPARγ; read-out: TR-FRET AC50. An outline of the steps: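 Corepressor recruitment is measured by adding terbium-labeled anti-His antibody and FITC SMRT-ID2 peptide, at 5 and 200 nM final, after a 20-minute room-temperature protein–compound incubation. After one further hour, signal is converted to percent response between DMSO and 500 nM T0070907 wells.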
For orientation: In TR-FRET formats the signal depends on donor and acceptor labels being close together.
Regarding `COc1cc(-c2cc(C(=O)N3CCC(C(=O)NCC4CC(=O)N(C)C4)CC3)n[nH]2)c(Cl)cn1` (stereo not drawn) [1-[5-(5-chloro-2-methoxypyridin-4-yl)-1H-pyrazole-3-carbonyl]-N-[(1-methyl-5-oxopyrrolidin-3-yl)methyl]piperidine-4-carboxamide], the AC50 (usually the concentration at which the activity in the assay is half-maximal) is > 1 µM.

Turning to `CCOc1cc(-c2cc(C(=O)N3CCC(C(=O)N[C@H]4CC[C@@](O)(C(F)(F)F)CC4)CC34CC4)n[nH]2)c(F)cn1` (single isomer, unassigned), the half-maximal activity concentration (AC50) was > 1 µM.

Regarding `CN(C)CCCNC(=O)C1CCN(C(=O)c2cc(-c3ccncc3)[nH]n2)CC1` [N-[3-(dimethylamino)propyl]-1-[5-(pyridin-4-yl)-1H-pyrazole-3-carbonyl]piperidine-4-carboxamide], the concentration at half-maximal activity (AC50) was > 1 µM.

Consider `O=C(c1cc(-c2ccncc2)[nH]n1)N1CCC(C(=O)N2CCC23COC3)CC1` [1-{1-[5-(pyridin-4-yl)-1H-pyrazole-3-carbonyl]piperidine-4-carbonyl}-6-oxa-1-azaspiro[3.3]heptane], for which the AC50 is > 1 µM.

As for `COc1cc(-c2cc(C(=O)N3CCC(C(=O)NC4(C)CC(F)(F)C4)CC3)n[nH]2)c(Cl)cn1` [1-[5-(5-chloro-2-methoxypyridin-4-yl)-1H-pyrazole-3-carbonyl]-N-(3,3-difluoro-1-methylcyclobutyl)piperidine-4-carboxamide], the AC50 is > 1 µM.

For the compound `COc1cc(-c2cc(C(=O)N3CCC(C(=O)NC4CCC(F)(F)CC4)CC3)n[nH]2)ccn1` [N-(4,4-difluorocyclohexyl)-1-[5-(2-methoxypyridin-4-yl)-1H-pyrazole-3-carbonyl]piperidine-4-carboxamide], the concentration at half-maximal activity (AC50) was > 1 µM.

Take `COc1cc(-c2cc(C(=O)N3CCC(C(=O)NCC4CN(C)C4)CC3)n[nH]2)c(Cl)cn1` [1-[5-(5-chloro-2-methoxypyridin-4-yl)-1H-pyrazole-3-carbonyl]-N-[(1-methylazetidin-3-yl)methyl]piperidine-4-carboxamide]: the AC50 is > 1 µM.

As for `COc1cc(-c2cc(C(=O)N3CCC(C(=O)NC4CS(=O)(=O)Cc5ccccc54)CC3)n[nH]2)c(Cl)cn1` (stereo not drawn) [1-[5-(5-chloro-2-methoxypyridin-4-yl)-1H-pyrazole-3-carbonyl]-N-(2,2-dioxo-3,4-dihydro-1H-2λ^6-benzothiopyran-4-yl)piperidine-4-carboxamide], the AC50 is > 1 µM.

For the compound `Cc1cc(-c2cc(C(=O)N3CCC(C(=O)N[C@H]4CC[C@@](O)(C(F)(F)F)CC4)CC34CC4)n[nH]2)c([C@@H](C)O)cn1` (single isomer, unassigned), the half-maximal activity concentration (AC50) is > 1 µM.

Turning to `CC(C)(C)c1csc(CNC(=O)C2CCN(C(=O)c3cc(-c4ccncc4)[nH]n3)CC2)n1` [N-[(4-tert-butyl-1,3-thiazol-2-yl)methyl]-1-[5-(pyridin-4-yl)-1H-pyrazole-3-carbonyl]piperidine-4-carboxamide], the AC50 was > 1 µM.

Regarding `O=C(c1cc(-c2ccncc2)[nH]n1)N1CCC(C(=O)N2CCC[C@H]2CO)CC1` [[(2S)-1-{1-[5-(pyridin-4-yl)-1H-pyrazole-3-carbonyl]piperidine-4-carbonyl}pyrrolidin-2-yl]methanol], the AC50 is > 1 µM.

Consider `COc1cc(-c2cc(C(=O)N3CCC(C(=O)NC4CCN(C(C)=O)C4)CC3)n[nH]2)c(Cl)cn1` (stereo not drawn) [N-(1-acetylpyrrolidin-3-yl)-1-[5-(5-chloro-2-methoxypyridin-4-yl)-1H-pyrazole-3-carbonyl]piperidine-4-carboxamide], for which the AC50 was > 1 µM.

For `COc1cc(-c2cc(C(=O)N3CCC(C(=O)NCc4ncco4)CC3)n[nH]2)c(Cl)cn1` [1-[5-(5-chloro-2-methoxypyridin-4-yl)-1H-pyrazole-3-carbonyl]-N-[(1,3-oxazol-2-yl)methyl]piperidine-4-carboxamide], the AC50 is > 1 µM.

In the case of `COc1cc(-c2cc(C(=O)N3CCC(C(=O)NCC4(F)COC4)CC3)n[nH]2)c(Cl)cn1` [1-[5-(5-chloro-2-methoxypyridin-4-yl)-1H-pyrazole-3-carbonyl]-N-[(3-fluorooxetan-3-yl)methyl]piperidine-4-carboxamide], the AC50 is > 1 µM.

As for `CN1CCC(NC(=O)C2CCN(C(=O)c3cc(-c4ccncc4)[nH]n3)CC2)CC1` [N-(1-methylpiperidin-4-yl)-1-[5-(pyridin-4-yl)-1H-pyrazole-3-carbonyl]piperidine-4-carboxamide], the AC50 was > 1 µM.

Regarding `COc1cc(-c2cc(C(=O)N3CCC(C(=O)NCC4(O)CCOCC4)CC3)n[nH]2)c(Cl)cn1` [1-[5-(5-chloro-2-methoxypyridin-4-yl)-1H-pyrazole-3-carbonyl]-N-[(4-hydroxyoxan-4-yl)methyl]piperidine-4-carboxamide], the half-maximal activity concentration (AC50) is > 1 µM.

Take `COc1cc(-c2cc(C(=O)N3CCC(C(=O)NCC4CN(C)CCO4)CC3)n[nH]2)c(Cl)cn1` (stereo not drawn) [1-[5-(5-chloro-2-methoxypyridin-4-yl)-1H-pyrazole-3-carbonyl]-N-[(4-methylmorpholin-2-yl)methyl]piperidine-4-carboxamide]: the AC50 is > 1 µM.

As to `COc1cc(-c2cc(C(=O)N3CCC(C(=O)NC4CC4C(F)(F)F)CC3)n[nH]2)c(Cl)cn1` (stereo not drawn) [1-[5-(5-chloro-2-methoxypyridin-4-yl)-1H-pyrazole-3-carbonyl]-N-[2-(trifluoromethyl)cyclopropyl]piperidine-4-carboxamide], the half-maximal activity concentration (AC50) is > 1 µM.

In the case of `O=C(Nc1cccnn1)C1CCN(C(=O)c2cc(-c3ccncc3)[nH]n2)CC1` [N-(pyridazin-3-yl)-1-[5-(pyridin-4-yl)-1H-pyrazole-3-carbonyl]piperidine-4-carboxamide], the AC50 was > 1 µM.

Take `COc1cc(-c2cc(C(=O)N3CCC(OCC(F)(F)F)(C(=O)NCc4cccc(Cl)c4)CC3)n[nH]2)c(Cl)cn1` [1-[5-(5-chloro-2-methoxypyridin-4-yl)-1H-pyrazole-3-carbonyl]-N-[(3-chlorophenyl)methyl]-4-(2,2,2-trifluoroethoxy)piperidine-4-carboxamide]: the AC50 is > 1 µM.

In the case of `N#C[C@H]1CC[C@@H](NC(=O)C2CCN(C(=O)c3cc(-c4ccncc4)[nH]n3)CC2)CC1`, the AC50 was > 1 µM.

On to `COc1cc(-c2cc(C(=O)N3CCC(C(=O)Nc4nccnc4O)CC3)n[nH]2)c(Cl)cn1` [1-[5-(5-chloro-2-methoxypyridin-4-yl)-1H-pyrazole-3-carbonyl]-N-(3-hydroxypyrazin-2-yl)piperidine-4-carboxamide], for which the AC50 was > 1 µM.

As for `COc1cc(-c2cc(C(=O)N3CCC(C(=O)NCc4nc5cccnc5[nH]4)CC3)n[nH]2)c(Cl)cn1` [1-[5-(5-chloro-2-methoxypyridin-4-yl)-1H-pyrazole-3-carbonyl]-N-({3H-imidazo[4,5-b]pyridin-2-yl}methyl)piperidine-4-carboxamide], the AC50 is > 1 µM.

For the compound `COc1cc(-c2cc(C(=O)N3CCC(C(=O)NC4CCC(C)(O)CC4)CC3)n[nH]2)c(Cl)cn1` (stereo not drawn), the AC50 is > 1 µM.

Take `COc1cc(-c2cc(C(=O)N3CCC(C(=O)NC4CC[C@H]5[C@H](CCN5C)C4)CC34CC4)n[nH]2)c(F)cn1` (relative stereo) [(7R*)—N-[(3aR,7aS)-1-methyl-octahydro-1H-indol-5-yl]-4-[5-(5-fluoro-2-methoxypyridin-4-yl)-1H-pyrazole-3-carbonyl]-4-azaspiro[2.5]octane-7-carboxamide]: the AC50 was > 1 µM.

Take `C[C@@H](NC(=O)C1CCN(C(=O)c2cc(-c3ccncc3)[nH]n2)CC1)c1ccccc1` [N-[(1R)-1-phenylethyl]-1-[5-(pyridin-4-yl)-1H-pyrazole-3-carbonyl]piperidine-4-carboxamide]: the AC50 is > 1 µM.

For `COc1cc(-c2cc(C(=O)N3CCC(C(=O)NC(C)c4ncccn4)CC3)n[nH]2)c(Cl)cn1` (stereo not drawn) [1-[5-(5-chloro-2-methoxypyridin-4-yl)-1H-pyrazole-3-carbonyl]-N-[1-(pyrimidin-2-yl)ethyl]piperidine-4-carboxamide], the AC50 was > 1 µM.

With `COc1cc(-c2cc(C(=O)N3CCC(C(=O)NCc4ccc(C)nc4)CC3)n[nH]2)c(Cl)cn1` [1-[5-(5-chloro-2-methoxypyridin-4-yl)-1H-pyrazole-3-carbonyl]-N-[(6-methylpyridin-3-yl)methyl]piperidine-4-carboxamide], the AC50 is > 1 µM.

Turning to `COCC1(C(=O)NCc2cccc(Cl)c2)CCN(C(=O)c2cc(-c3cc(OC)ncc3Cl)[nH]n2)CC1` [1-[5-(5-chloro-2-methoxypyridin-4-yl)-1H-pyrazole-3-carbonyl]-N-[(3-chlorophenyl)methyl]-4-(methoxymethyl)piperidine-4-carboxamide], the concentration at half-maximal activity (AC50) was > 1 µM.

Take `CN(C)[C@H]1CCN(C(=O)C2CCN(C(=O)c3cc(-c4ccncc4)[nH]n3)CC2)C1` [(3S)—N,N-dimethyl-1-{1-[5-(pyridin-4-yl)-1H-pyrazole-3-carbonyl]piperidine-4-carbonyl}pyrrolidin-3-amine]: the AC50 was > 1 µM.

Take `COc1cc(-c2cc(C(=O)N3CCC(C(=O)NC45CCC(O)(CC4)C5)CC3)n[nH]2)c(F)cn1`: the AC50 was > 1 µM.

For `COc1cc(-c2cc(C(=O)N3CCC(C(=O)NC4CCC(C#N)CC4)CC3)n[nH]2)c(Cl)cn1` (stereo not drawn) [1-[5-(5-chloro-2-methoxypyridin-4-yl)-1H-pyrazole-3-carbonyl]-N-(4-cyanocyclohexyl)piperidine-4-carboxamide], the AC50 was > 1 µM.

As for `O=C(NCc1ccccc1F)C1CCN(C(=O)c2cc(-c3ccncc3)[nH]n2)CC1` [N-[(2-fluorophenyl)methyl]-1-[5-(pyridin-4-yl)-1H-pyrazole-3-carbonyl]piperidine-4-carboxamide], the AC50 is > 1 µM.
